Tests used:
Trypanosoma brucei (BSF) [1] = experiment: Growth inhibition of cultured bloodstream form T. brucei; assay type: cell-based, Trypanosoma brucei (strain 427)
Description: Treatment of parasites with micromolar levels of these inhibitors could result in cell death within 4 h (Fig. 1).
[30] Growth inhibitory properties against cultured bloodstream form T. brucei were determined as described previously.[29] Experiments were performed in triplicate and data are presented as ±SD.

HDAC (FDL_HELA) = experiment: Histone deacetylase activity in HeLa cell lysates (fluorescent assay kit); assay type: biochemical, Human; conditions: lysed HeLa cells; read-out: HDAC (FDL_HELA) IC50 ± SD
Description: (§1) The compounds from the different structural subclasses were all active as HDAC inhibitors, measured in an assay of enzymes in HeLa cell lysates.[23,24] HeLa cells express multiple HDACs, including HDAC 1, 2, 3, 4, and 8.[25–27] […] To further characterise the compounds with respect to HDAC selectivity, we determined their inhibitory properties against recombinant expressed human HDACs (rhHDAC 1–4, 6–9).[28]
[24] Histone deacetylase activity was determined in lysed Human cervix epithelial cancer HeLa cells. To determine the IC50 of test compound a commercially available fluorescent assay kit was used employing an acetylated enzyme substrate.[23]

rhHDAC 1 = rhHDAC 1 (Homo sapiens, UniProt Q13547); experiment: Inhibition of recombinant human HDAC isoforms; assay type: biochemical; conditions: mean ± SD, triplicate per plate, min two plates; read-out: ED50 rhHDAC 1
Description: as §1

rhHDAC 2 = rhHDAC 2 (Homo sapiens, UniProt Q92769); experiment: Inhibition of recombinant human HDAC isoforms; assay type: biochemical; conditions: mean ± SD, triplicate per plate, min two plates; read-out: ED50 rhHDAC 2
Description: as §1

rhHDAC 3 = rhHDAC 3 (Homo sapiens, UniProt O15379); experiment: Inhibition of recombinant human HDAC isoforms; assay type: biochemical; conditions: mean ± SD, triplicate per plate, min two plates; read-out: ED50 rhHDAC 3
Description: as §1

rhHDAC 4 = rhHDAC 4 (Homo sapiens, UniProt P56524); experiment: Inhibition of recombinant human HDAC isoforms; assay type: biochemical; conditions: mean ± SD, triplicate per plate, min two plates; read-out: ED50 rhHDAC 4
Description: as §1

rhHDAC 6 = molecular target: T1, rhHDAC 6 (Homo sapiens, UniProt Q9UBN7); experiment: Inhibition of recombinant human HDAC isoforms; assay type: biochemical; conditions: mean ± SD, triplicate per plate, min two plates; read-out: ED50 rhHDAC 6
T1 sequence (Q9UBN7 1-1215): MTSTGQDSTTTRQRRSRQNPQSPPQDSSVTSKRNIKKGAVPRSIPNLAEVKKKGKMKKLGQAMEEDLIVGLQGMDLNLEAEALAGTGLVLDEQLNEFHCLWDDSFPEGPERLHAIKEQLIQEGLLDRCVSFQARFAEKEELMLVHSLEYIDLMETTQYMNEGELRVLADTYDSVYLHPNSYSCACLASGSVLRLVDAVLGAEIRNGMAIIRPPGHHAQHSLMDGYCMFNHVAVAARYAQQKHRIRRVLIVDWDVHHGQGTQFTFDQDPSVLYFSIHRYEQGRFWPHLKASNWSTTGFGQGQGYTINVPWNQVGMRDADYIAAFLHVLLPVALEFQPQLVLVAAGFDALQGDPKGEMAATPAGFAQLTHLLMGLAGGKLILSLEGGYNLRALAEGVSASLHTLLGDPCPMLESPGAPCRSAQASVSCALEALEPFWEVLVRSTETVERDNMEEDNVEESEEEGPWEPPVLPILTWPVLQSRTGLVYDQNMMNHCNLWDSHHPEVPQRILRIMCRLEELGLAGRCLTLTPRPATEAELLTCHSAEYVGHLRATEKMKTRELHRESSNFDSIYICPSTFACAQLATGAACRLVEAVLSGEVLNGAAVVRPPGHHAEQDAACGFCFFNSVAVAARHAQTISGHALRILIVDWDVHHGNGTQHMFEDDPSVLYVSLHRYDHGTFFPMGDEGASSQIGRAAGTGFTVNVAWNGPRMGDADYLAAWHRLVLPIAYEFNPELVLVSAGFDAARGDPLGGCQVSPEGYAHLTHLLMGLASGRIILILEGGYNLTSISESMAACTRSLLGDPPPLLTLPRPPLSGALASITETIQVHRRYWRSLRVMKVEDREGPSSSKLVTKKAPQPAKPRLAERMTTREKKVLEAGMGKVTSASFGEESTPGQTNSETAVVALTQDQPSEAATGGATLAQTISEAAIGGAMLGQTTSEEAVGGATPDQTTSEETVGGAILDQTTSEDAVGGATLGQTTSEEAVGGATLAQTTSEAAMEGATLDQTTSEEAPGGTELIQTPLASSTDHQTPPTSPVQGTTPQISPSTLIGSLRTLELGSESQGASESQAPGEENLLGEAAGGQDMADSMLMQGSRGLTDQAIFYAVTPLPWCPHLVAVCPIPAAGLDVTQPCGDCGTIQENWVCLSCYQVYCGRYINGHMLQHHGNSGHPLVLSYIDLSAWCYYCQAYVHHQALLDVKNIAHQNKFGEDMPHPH
Description: as §1

rhHDAC 7 = molecular target: T2, rhHDAC 7 (Homo sapiens, UniProt Q8WUI4); experiment: Inhibition of recombinant human HDAC isoforms; assay type: biochemical; conditions: mean ± SD, triplicate per plate, min two plates; read-out: ED50 rhHDAC 7
T2 sequence (Q8WUI4 1-952): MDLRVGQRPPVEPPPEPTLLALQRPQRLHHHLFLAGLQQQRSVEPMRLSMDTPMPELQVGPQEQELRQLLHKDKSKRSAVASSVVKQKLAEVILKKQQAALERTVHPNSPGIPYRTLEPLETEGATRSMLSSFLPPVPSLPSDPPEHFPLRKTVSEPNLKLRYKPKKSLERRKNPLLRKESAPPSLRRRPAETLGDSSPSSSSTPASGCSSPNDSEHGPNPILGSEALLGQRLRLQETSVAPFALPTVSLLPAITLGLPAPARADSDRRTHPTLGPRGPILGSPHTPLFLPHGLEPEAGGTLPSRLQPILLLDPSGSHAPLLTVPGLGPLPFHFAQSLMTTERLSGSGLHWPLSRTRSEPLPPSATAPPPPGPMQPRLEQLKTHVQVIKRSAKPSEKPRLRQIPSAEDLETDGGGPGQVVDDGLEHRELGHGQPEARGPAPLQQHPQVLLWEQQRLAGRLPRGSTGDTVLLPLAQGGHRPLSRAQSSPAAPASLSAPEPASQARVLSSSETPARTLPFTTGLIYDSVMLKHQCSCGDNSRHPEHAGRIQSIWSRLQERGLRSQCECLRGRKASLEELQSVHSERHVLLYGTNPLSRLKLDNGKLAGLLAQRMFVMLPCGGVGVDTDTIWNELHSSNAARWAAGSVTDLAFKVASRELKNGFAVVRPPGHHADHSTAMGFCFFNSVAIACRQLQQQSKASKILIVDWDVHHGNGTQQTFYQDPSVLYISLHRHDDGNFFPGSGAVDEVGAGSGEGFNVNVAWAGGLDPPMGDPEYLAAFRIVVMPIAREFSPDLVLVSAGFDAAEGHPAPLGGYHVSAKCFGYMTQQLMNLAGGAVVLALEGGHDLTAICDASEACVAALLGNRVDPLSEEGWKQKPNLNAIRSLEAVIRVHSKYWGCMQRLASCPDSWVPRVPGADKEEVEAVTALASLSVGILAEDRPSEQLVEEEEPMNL
Description: as §1

rhHDAC 8 = molecular target: T3, rhHDAC 8 (Homo sapiens, UniProt Q9BY41); experiment: Inhibition of recombinant human HDAC isoforms; assay type: biochemical; conditions: mean ± SD, triplicate per plate, min two plates; read-out: ED50 rhHDAC 8
T3 sequence (Q9BY41 1-377): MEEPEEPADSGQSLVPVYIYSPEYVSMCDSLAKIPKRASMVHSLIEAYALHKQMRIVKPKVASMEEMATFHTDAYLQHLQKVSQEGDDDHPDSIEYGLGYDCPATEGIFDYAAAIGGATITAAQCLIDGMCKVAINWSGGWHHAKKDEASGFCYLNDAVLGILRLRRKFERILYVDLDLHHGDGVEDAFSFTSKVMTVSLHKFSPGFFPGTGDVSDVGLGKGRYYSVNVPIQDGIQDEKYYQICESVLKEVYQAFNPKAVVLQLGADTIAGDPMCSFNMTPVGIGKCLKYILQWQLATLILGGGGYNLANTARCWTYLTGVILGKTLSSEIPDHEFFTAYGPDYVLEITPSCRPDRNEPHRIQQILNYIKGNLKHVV
Description: as §1

rhHDAC 9 = rhHDAC 9 (Homo sapiens, UniProt Q9UKV0); experiment: Inhibition of recombinant human HDAC isoforms; assay type: biochemical; conditions: mean ± SD, triplicate per plate, min two plates; read-out: ED50 rhHDAC 9
Description: as §1

Trypanosoma brucei (BSF) [2] = system: Trypanosoma brucei (BSF); parameters: method as in PMID 14726511; conditions: cited from earlier work
DAC1 = system: DAC1; parameters: method as in PMID 20624217; conditions: cited from earlier work
DAC3 = system: DAC3; parameters: method as in PMID 20624217; conditions: cited from earlier work

Chain of rhHDAC 2 (Q92769 whole entry, canonical isoform): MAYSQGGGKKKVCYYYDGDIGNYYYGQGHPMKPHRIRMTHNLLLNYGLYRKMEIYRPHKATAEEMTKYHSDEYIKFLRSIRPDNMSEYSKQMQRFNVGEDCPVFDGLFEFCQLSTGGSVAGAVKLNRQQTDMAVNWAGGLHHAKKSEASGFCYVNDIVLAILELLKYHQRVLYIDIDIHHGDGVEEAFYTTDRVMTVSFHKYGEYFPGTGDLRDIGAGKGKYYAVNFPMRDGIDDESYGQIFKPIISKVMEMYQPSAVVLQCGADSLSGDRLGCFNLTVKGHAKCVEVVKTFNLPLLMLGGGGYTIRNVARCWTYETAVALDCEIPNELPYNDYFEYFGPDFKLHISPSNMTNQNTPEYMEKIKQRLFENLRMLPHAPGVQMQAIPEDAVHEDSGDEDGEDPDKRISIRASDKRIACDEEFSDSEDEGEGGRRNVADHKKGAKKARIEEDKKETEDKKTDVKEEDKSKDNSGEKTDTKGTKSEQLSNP
Chain of rhHDAC 3 (O15379 whole entry, canonical isoform): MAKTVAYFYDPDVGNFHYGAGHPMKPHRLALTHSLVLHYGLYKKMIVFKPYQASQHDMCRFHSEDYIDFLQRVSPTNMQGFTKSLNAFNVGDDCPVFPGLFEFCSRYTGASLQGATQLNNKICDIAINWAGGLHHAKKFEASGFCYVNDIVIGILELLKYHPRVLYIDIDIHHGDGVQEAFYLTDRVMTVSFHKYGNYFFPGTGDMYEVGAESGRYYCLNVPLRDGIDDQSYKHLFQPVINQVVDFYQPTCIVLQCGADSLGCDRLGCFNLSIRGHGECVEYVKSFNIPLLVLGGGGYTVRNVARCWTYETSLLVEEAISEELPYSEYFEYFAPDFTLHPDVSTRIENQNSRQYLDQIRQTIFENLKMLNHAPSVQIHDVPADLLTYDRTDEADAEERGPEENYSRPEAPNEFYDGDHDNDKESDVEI
Chain of rhHDAC 3 (Q9Y618 395-489 partner limits assumed): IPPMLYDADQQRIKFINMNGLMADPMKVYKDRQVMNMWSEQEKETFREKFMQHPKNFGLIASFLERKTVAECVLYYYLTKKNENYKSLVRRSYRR
Chain of rhHDAC 9 (Q9UKV0 whole entry, canonical isoform): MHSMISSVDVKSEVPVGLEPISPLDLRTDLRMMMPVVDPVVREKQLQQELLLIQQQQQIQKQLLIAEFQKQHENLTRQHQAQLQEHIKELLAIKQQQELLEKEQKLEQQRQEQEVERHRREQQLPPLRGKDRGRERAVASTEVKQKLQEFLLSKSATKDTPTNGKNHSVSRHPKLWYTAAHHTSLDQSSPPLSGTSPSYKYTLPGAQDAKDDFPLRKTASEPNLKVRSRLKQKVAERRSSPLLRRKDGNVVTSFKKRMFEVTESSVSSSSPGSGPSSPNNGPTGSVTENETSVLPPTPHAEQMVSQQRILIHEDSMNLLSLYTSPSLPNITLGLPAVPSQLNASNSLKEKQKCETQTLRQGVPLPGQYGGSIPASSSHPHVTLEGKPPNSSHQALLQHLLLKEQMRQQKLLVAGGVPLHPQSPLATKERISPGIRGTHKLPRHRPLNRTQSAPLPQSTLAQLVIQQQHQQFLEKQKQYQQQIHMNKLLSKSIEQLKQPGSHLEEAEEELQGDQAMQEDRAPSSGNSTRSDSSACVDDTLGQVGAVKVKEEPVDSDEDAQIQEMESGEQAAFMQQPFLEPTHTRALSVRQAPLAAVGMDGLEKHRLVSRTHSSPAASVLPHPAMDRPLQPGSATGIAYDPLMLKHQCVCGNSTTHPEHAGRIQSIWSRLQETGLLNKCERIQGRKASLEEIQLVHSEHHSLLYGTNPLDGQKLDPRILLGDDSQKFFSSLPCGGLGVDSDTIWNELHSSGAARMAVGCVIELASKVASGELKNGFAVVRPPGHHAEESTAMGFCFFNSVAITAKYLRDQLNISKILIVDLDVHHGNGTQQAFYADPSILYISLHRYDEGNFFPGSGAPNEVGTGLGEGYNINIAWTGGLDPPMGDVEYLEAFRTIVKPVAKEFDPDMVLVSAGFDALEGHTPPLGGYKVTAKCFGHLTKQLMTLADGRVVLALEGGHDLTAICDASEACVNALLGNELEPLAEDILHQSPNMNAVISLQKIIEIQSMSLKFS
Chain of rhHDAC 4 (P56524 whole entry, canonical isoform): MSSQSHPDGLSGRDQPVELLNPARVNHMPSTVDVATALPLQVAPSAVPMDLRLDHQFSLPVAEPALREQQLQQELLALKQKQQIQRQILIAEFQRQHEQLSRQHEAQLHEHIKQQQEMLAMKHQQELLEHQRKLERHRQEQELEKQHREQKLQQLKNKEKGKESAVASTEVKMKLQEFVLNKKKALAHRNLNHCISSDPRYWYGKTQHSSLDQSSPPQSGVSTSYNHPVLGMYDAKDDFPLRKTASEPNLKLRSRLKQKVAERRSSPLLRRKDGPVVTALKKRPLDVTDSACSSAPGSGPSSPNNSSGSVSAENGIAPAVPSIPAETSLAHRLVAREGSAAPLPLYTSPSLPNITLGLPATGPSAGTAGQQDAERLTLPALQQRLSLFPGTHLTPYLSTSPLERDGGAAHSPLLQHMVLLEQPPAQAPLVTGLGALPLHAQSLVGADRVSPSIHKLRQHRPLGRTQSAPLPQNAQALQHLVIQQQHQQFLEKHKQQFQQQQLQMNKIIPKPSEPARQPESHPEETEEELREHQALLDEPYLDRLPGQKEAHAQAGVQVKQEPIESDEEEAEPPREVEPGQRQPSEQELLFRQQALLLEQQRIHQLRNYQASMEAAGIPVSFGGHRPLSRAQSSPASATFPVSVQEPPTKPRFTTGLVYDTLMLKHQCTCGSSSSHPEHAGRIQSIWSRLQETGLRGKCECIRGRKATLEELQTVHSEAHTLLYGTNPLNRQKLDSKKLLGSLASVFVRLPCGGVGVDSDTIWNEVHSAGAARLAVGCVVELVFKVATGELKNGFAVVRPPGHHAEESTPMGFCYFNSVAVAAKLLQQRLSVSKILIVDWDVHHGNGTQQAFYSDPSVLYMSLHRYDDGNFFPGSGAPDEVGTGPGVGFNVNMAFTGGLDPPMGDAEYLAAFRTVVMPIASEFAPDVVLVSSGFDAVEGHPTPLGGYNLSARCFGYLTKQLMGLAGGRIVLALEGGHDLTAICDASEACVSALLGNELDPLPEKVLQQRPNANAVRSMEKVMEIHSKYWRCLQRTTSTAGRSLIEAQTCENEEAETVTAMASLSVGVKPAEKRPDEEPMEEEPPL
Chain of rhHDAC 1 (Q13547 whole entry, canonical isoform): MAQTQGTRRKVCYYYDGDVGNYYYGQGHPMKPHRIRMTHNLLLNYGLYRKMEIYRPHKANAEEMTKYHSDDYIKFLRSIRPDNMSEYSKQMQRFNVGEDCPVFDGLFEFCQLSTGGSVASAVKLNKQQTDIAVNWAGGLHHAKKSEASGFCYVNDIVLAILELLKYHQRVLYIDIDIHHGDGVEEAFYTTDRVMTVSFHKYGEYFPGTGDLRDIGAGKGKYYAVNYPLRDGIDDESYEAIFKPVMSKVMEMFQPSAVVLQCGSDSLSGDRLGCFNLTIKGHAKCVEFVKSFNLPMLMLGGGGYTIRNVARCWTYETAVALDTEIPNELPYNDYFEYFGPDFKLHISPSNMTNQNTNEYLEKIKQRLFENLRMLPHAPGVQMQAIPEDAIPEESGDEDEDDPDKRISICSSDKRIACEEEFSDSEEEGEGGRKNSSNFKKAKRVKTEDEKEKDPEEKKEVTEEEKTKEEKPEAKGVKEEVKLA

IC50 (Trypanosoma brucei (BSF) [1]; Trypanosoma brucei, cultured bloodstream form, strain 427, triplicate, read-out: Trypanosoma brucei (BSF) IC50 ± SD) [nM]	IC90 (Trypanosoma brucei (BSF) [1]; Trypanosoma brucei, cultured bloodstream form, strain 427, triplicate, read-out: Trypanosoma brucei (BSF) IC90 ± SD) [nM]	IC50 (HDAC (FDL_HELA)) [nM]	IC50 (rhHDAC 1) [nM]	IC50 (rhHDAC 2) [nM]	IC50 (rhHDAC 3) [nM]	IC50 (rhHDAC 4) [nM]	IC50 (rhHDAC 6) [nM]	IC50 (rhHDAC 7) [nM]	IC50 (rhHDAC 8) [nM]	IC50 (rhHDAC 9) [nM]	Compound	fold less active against T. brucei (Trypanosoma brucei (BSF) [1]; relative to heterocyclic compounds 9 and 16)	growth of bloodstream form T. brucei (Trypanosoma brucei (BSF) [2])	inhibition of DAC1 activity (DAC1)	inhibition of DAC3 activity (DAC3)
1540 ± 60	2180 ± 180	48 ± 28	134 ± 6	554 ± 44	97 ± 0.6	373 ± 73	68 ± 13	286 ± 8	573 ± 30	278 ± 65	O=C(/C=C/c1nc2ccccc2o1)NO [Compound 20]	5- to 10 fold	–	–	–
–	–	–	–	–	–	–	–	–	–	–	CC(/C=C/C(=O)NO)=C\[C@@H](C)C(=O)c1ccc(N(C)C)cc1 [Trichostatin A]	–	suppresses growth	inhibitor	inhibitor

Source: PMC3314994, “Inhibitors of human histone deacetylase with potent activity against the African trypanosome Trypanosoma brucei” (Bioorganic & Medicinal Chemistry Letters, 2012)
